A value given as a limit tells only on which side of the number the result lay.

In the experiment the target is T1, human Nav1.6 (hNav1.6) (Homo sapiens, UniProt Q9UQD0).
T1 construct: expressed in transfected cells; host or cells: HEK-293 (G418 selection)
T1 sequence (Q9UQD0 whole entry): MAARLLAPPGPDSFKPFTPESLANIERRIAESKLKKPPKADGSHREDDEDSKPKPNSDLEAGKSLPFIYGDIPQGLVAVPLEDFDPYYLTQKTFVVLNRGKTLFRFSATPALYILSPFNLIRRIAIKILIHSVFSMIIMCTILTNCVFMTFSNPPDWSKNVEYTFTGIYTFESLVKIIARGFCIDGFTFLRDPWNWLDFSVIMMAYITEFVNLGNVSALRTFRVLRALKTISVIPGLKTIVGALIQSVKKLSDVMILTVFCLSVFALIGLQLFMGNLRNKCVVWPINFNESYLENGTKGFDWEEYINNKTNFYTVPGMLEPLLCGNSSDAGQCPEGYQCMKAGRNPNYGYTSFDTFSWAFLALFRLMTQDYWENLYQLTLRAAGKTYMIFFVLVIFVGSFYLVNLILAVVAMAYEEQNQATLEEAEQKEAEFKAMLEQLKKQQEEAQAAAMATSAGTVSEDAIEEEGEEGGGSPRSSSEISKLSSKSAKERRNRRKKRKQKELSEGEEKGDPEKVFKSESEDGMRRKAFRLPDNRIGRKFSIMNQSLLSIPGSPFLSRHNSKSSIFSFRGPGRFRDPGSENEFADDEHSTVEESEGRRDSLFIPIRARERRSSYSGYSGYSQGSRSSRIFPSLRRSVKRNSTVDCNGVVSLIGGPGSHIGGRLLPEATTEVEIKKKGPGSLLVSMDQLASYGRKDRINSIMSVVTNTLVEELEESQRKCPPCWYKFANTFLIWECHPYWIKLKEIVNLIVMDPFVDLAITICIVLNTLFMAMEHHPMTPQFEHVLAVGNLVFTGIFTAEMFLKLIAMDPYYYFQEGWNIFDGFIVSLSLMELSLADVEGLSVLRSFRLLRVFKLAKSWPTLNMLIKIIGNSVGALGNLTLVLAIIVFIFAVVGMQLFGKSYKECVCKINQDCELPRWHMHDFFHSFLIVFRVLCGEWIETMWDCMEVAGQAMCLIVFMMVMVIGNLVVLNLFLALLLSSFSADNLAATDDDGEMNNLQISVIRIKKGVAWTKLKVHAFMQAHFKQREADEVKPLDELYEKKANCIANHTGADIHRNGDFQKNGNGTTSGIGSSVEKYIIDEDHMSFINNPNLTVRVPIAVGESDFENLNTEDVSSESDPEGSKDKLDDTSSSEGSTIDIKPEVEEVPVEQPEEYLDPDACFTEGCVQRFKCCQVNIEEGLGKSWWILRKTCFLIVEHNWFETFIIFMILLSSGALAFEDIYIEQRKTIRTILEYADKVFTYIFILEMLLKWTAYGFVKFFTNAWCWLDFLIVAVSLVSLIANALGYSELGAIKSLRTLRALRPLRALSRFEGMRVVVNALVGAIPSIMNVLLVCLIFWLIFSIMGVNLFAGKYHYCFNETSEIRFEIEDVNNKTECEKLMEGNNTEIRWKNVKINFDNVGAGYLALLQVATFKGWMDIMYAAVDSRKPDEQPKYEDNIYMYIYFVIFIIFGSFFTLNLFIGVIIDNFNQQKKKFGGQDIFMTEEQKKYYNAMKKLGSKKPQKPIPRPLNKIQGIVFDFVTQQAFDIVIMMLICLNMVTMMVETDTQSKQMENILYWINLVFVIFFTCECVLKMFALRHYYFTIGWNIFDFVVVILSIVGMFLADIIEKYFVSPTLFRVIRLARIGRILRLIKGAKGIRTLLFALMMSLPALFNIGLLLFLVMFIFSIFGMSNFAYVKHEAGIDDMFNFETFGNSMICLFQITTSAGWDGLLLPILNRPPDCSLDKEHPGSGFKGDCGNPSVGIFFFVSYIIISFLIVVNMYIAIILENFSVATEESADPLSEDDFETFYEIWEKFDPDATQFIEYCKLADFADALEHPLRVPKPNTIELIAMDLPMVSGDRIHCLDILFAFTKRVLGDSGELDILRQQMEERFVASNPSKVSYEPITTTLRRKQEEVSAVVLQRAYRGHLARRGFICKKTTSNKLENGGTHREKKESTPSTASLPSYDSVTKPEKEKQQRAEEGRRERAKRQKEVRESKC
The experiment can be described thus: Modulation of late sodium current (INaL), PatchXpress electrophysiology. Format: cell-based. Particulars: HEK293; 1 μM compound; HEK-293 cells expressing recombinant human Nav channel; late current evoked by 300 nM ATX-II; steady-state inhibition; read-out: INaL v1.6 (1 μM, % Inhibition). Here is the method:
Functional characterization of exemplary compounds to modulate INaL expressed by the Nav1.6 voltage-gated sodium channel was accomplished using the PatchXpress™ high throughput electrophysiology platform (Molecular Devices, Sunnyvale, Calif.). HEK-293 cells expressing recombinant, human Nav1.6 (hNav1.6) were grown in DMEM/high-glucose Dulbecco's modified, 10% FBS, 2 mM sodium pyruvate, 10 mM HEPES and 400 μg/mL G418. Cells were grown to 50%-80% confluency prior to harvesting. Trypsinized cells were washed, allowed to recover for 1 hour and then resuspended in extracellular recording solution at a concentration of 1×10^6 cells/ml. The onboard liquid handling facility of the PatchXpress was used for dispensing cells and applying test compounds. Nav late currents were evoked by the application of 300 nM ATX-II. INaL was evoked by depolarizing pulses to 0 mV for 200 ms from a non-inactivating holding potential (e.g., −120 mV) at a frequency of 0.1 Hz. INaL amplitude and stability were determined by analyzing the mean current amplitude over the final 20 ms of the test pulse. […] Percent steady-state inhibition of INaL was calculated as: [(INaL_compound)/(INaL_control)]*100, where INaL_compound and INaL_control represent INaL recorded in the presence or absence of compound, respectively.
The term inhibition denotes the change of the read-out against control, counted positive when it falls. `O=c1oc2ccc(-c3ccc(OC(F)(F)F)cc3)nc2n1C[C@H]1CCCCO1` (single isomer, unassigned) [Compound 54]: the inhibition at 1 µM was 30 to 70%.

For `O=c1oc2ccc(-c3ccc(OC(F)(F)F)cc3)nc2n1C[C@@H]1CCCCO1` (single isomer, unassigned) [Compound 55], the inhibition at 1 µM fell in the range of 30 to 70%.

Consider `O=c1oc2ccc(-c3ccc(OC(F)(F)F)cc3)cc2n1C[C@@H]1CCCCO1` (single isomer, unassigned) [Compound 58], for which the inhibition at 1 µM is greater than 70%.

For `O=c1oc2ccc(-c3ccc(OC(F)(F)F)cc3)cc2n1C[C@H]1CCCCO1` (single isomer, unassigned) [Compound 59], the inhibition at 1 µM fell in the range of 30 to 70%.

For `O=c1oc2ccc(-c3ccc(OC(F)(F)F)cc3)nc2n1C[C@@H]1CCOC1` (single isomer, unassigned) [Compound 61], the inhibition at 1 µM was greater than 70%.

Turning to `O=c1oc2ccc(-c3ccc(OC(F)(F)F)cc3)nc2n1C[C@H]1CCOC1` (single isomer, unassigned) [Compound 62], the inhibition at 1 µM was greater than 70%.

For the compound `O=c1oc2ccc(-c3ccc(OC(F)(F)F)cc3)nc2n1C[C@@H]1CCCO1` (single isomer, unassigned) [Compound 64], the inhibition at 1 µM is greater than 70%.

Regarding `O=c1oc2ccc(-c3ccc(OC(F)(F)F)cc3)nc2n1C[C@H]1CCCO1` (single isomer, unassigned) [Compound 65], the inhibition at 1 µM fell in the range of 30 to 70%.

In the case of `O=c1oc2ccc(-c3ccc(OC(F)(F)F)cc3)nc2n1C[C@H]1CCCOC1` (single isomer, unassigned) [Compound 66], the inhibition at 1 µM was greater than 70%.

On to `O=c1oc2ccc(-c3ccc(OC(F)(F)F)cc3)nc2n1C[C@@H]1CCCOC1` (single isomer, unassigned) [Compound 67], for which the inhibition at 1 µM is greater than 70%.

For the compound `O=c1oc2ccc(-c3ccc(OC(F)(F)F)cc3)cc2n1C[C@@H]1CCOC1` (single isomer, unassigned) [Compound 69], the inhibition at 1 µM is greater than 70%.

As to `O=c1oc2ccc(-c3ccc(OC(F)(F)F)cc3)cc2n1C[C@H]1CCOC1` (single isomer, unassigned) [Compound 70], the inhibition at 1 µM was in the range of 30 to 70%.

For `O=c1oc2ccc(-c3ccc(OC(F)(F)F)cc3)cc2n1C[C@H]1CCCOC1` (single isomer, unassigned) [Compound 73], the inhibition at 1 µM is greater than 70%.

For the compound `C[C@H](O)CCn1c(=O)oc2ccc(-c3ccc(OC(F)(F)F)cc3)nc21` (single isomer, unassigned) [Compound 99], the inhibition at 1 µM was greater than 70%.

With `C[C@@H](O)CCn1c(=O)oc2ccc(-c3ccc(OC(F)(F)F)cc3)nc21` (single isomer, unassigned) [Compound 100], the inhibition at 1 µM is greater than 70%.

`O=c1oc2ccc(-c3ccc(OC(F)(F)F)cc3)nc2n1C[C@H]1CC1(F)F` (single isomer, unassigned) [Compound 106]: the inhibition at 1 µM is greater than 70%.

Consider `O=c1oc2ccc(-c3ccc(OC(F)(F)F)cc3)nc2n1C[C@@H]1CC1(F)F` (single isomer, unassigned) [Compound 107], for which the inhibition at 1 µM was in the range of 30 to 70%.

As for `COC[C@@H]1CCN(C(=O)Cn2c(=O)oc3ccc(-c4ccc(OC(F)(F)F)cc4)cc32)C1` (single isomer, unassigned) [Compound 138], the inhibition at 1 µM was 30 to 70%.

For the compound `COC[C@H]1CCN(C(=O)Cn2c(=O)oc3ccc(-c4ccc(OC(F)(F)F)cc4)cc32)C1` (single isomer, unassigned) [Compound 139], the inhibition at 1 µM was in the range of 30 to 70%.

For the compound `C[C@H](Cn1c(=O)oc2ccc(-c3ccc(OC(F)(F)F)cc3)nc21)c1ncccn1` (single isomer, unassigned) [Compound 149], the inhibition at 1 µM is greater than 70%.

For the compound `C[C@@H](Cn1c(=O)oc2ccc(-c3ccc(OC(F)(F)F)cc3)nc21)c1ncccn1` (single isomer, unassigned) [Compound 150], the inhibition at 1 µM is 30 to 70%.

For the compound `O=c1oc2ccc(-c3ccc(OC(F)(F)F)cc3)cc2n1CC(F)(F)F` [Compound 2], the inhibition at 1 µM was 30 to 70%.

Take `Cc1nnc(CCn2c(=O)oc3ccc(-c4ccc(OC(F)(F)F)cc4)cc32)o1` [Compound 3]: the inhibition at 1 µM was greater than 70%.

Take `O=C1Cc2ccc(-c3ccc(OC(F)(F)F)cc3)cc2N1CC(F)(F)F` [Compound 4]: the inhibition at 1 µM was greater than 70%.

In the case of `O=c1[nH]c2cc(-c3ccc(OC(F)(F)F)cc3)ccc2o1` [Compound 5, 5-[4-(trifluoromethoxy)phenyl]-3H-1,3-benzoxazol-2-one], the inhibition at 1 µM was greater than 70%.

On to `O=c1oc2ccc(-c3ccc(OCC(F)(F)F)nc3)cc2n1CC(F)(F)F` [Compound 6], for which the inhibition at 1 µM was in the range of 30 to 70%.

As to `COCc1cc(OC(F)(F)F)ccc1-c1ccc2oc(=O)n(CC(F)(F)F)c2c1` [Compound 7], the inhibition at 1 µM is greater than 70%.

For the compound `COCCn1c(=O)oc2ccc(-c3ccc(OC(F)(F)F)cc3)cc21` [Compound 9], the inhibition at 1 µM was less than 30%.

`Cn1c(=O)oc2ccc(-c3ccc(OC(F)(F)F)cc3)cc21` [Compound 10]: the inhibition at 1 µM was greater than 70%.

For the compound `CCn1c(=O)oc2ccc(-c3ccc(OC(F)(F)F)cc3)cc21` [Compound 11], the inhibition at 1 µM was greater than 70%.

In the case of `O=c1oc2ccc(-c3ccc(OC(F)(F)F)cc3)cc2n1CC1CC1` [Compound 12], the inhibition at 1 µM was greater than 70%.

In the case of `COCCCn1c(=O)oc2ccc(-c3ccc(OC(F)(F)F)cc3)cc21` [Compound 15], the inhibition at 1 µM is less than 30%.

Take `O=C(O)Cn1c(=O)oc2ccc(-c3ccc(OC(F)(F)F)cc3)cc21` [Compound 16, 2-[2-oxo-5-[4-(trifluoromethoxy)phenyl]-1,3-benzoxazol-3-yl]acetic acid]: the inhibition at 1 µM was less than 30%.

With `O=C(Cn1c(=O)oc2ccc(-c3ccc(OC(F)(F)F)cc3)cc21)N1CCCC1` [Compound 17], the inhibition at 1 µM was 30 to 70%.

As for `O=c1oc2ccc(-c3ccc(OC(F)(F)F)cc3)cc2n1CCC1CC1` [Compound 19], the inhibition at 1 µM is greater than 70%.

For the compound `O=c1[nH]c2cc(-c3ccc(OCC(F)(F)F)nc3)ccc2o1` [Compound 20], the inhibition at 1 µM lay in the range of 30 to 70%.

`Cc1nnc(CCN2C(=O)Cc3ccc(-c4ccc(OC(F)(F)F)cc4)cc32)o1` [Compound 21]: the inhibition at 1 µM fell in the range of 30 to 70%.

For `O=c1oc2ncc(-c3ccc(OC(F)(F)F)cc3)cc2n1CC(F)(F)F` [Compound 22], the inhibition at 1 µM is less than 30%.

As for `O=C(O)CCn1c(=O)oc2ccc(-c3ccc(OC(F)(F)F)cc3)cc21` [Compound 24], the inhibition at 1 µM is less than 30%.

Regarding `O=C(CCn1c(=O)oc2ccc(-c3ccc(OC(F)(F)F)cc3)cc21)N1CCCC1` [Compound 26], the inhibition at 1 µM is greater than 70%.

Turning to `CCN(CC)C(=O)CCn1c(=O)oc2ccc(-c3ccc(OC(F)(F)F)cc3)cc21` [Compound 28], the inhibition at 1 µM was greater than 70%.

Regarding `O=c1[nH]c2nc(-c3ccc(OC(F)(F)F)cc3)ccc2o1` [Compound 29, 5-[4-(trifluoromethoxy)phenyl]-3H-oxazolo[4,5-b]pyridin-2-one], the inhibition at 1 µM is less than 30%.

For `O=C1CCCN1CCCn1c(=O)oc2ccc(-c3ccc(OC(F)(F)F)cc3)cc21` [Compound 30], the inhibition at 1 µM lay within 30 to 70%.

For `O=C1OCCN1CCCn1c(=O)oc2ccc(-c3ccc(OC(F)(F)F)cc3)cc21` [Compound 31], the inhibition at 1 µM lay in the range of 30 to 70%.

With `Cn1c(=O)n(CC(F)(F)F)c2cc(-c3ccc(OC(F)(F)F)cc3)ccc21` [Compound 32], the inhibition at 1 µM fell in the range of 30 to 70%.

With `O=c1oc2ccc(-c3ccc(OC(F)(F)F)cc3)nc2n1CC(F)(F)F` [Compound 33], the inhibition at 1 µM is greater than 70%.

As for `O=c1oc2ncc(-c3ccc(OC(F)(F)F)cc3)cc2n1Cc1ccccc1` [Compound 34], the inhibition at 1 µM is 30 to 70%.

Consider `O=c1[nH]c2cc(-c3ccc(OC(F)(F)F)cc3)cnc2o1` [Compound 37], for which the inhibition at 1 µM is 30 to 70%.

In the case of `CCN(CC)C(=O)Cn1c(=O)oc2ccc(-c3ccc(OC(F)(F)F)cc3)cc21` [Compound 39], the inhibition at 1 µM was greater than 70%.

Turning to `O=C(Cn1c(=O)oc2ccc(-c3ccc(OC(F)(F)F)cc3)cc21)N1CCOCC1` [Compound 40], the inhibition at 1 µM was 30 to 70%.

As for `CNC(=O)Cn1c(=O)oc2ccc(-c3ccc(OC(F)(F)F)cc3)cc21` [Compound 41], the inhibition at 1 µM was less than 30%.

Regarding `NC(=O)Cn1c(=O)oc2ccc(-c3ccc(OC(F)(F)F)cc3)cc21` [Compound 42], the inhibition at 1 µM was less than 30%.

For `Cn1c(=O)oc2ncc(-c3ccc(OC(F)(F)F)cc3)cc21` [Compound 43], the inhibition at 1 µM was less than 30%.

In the case of `CC(C(=O)N1CCCC1)n1c(=O)oc2ccc(-c3ccc(OC(F)(F)F)cc3)cc21` (stereo not shown) [Compound 45], the inhibition at 1 µM is less than 30%.

For `O=c1oc2ncc(-c3ccc(OC(F)(F)F)cc3)cc2n1Cc1ncccn1` [Compound 49], the inhibition at 1 µM is less than 30%.

With `O=c1oc2ccc(-c3ccc(OC(F)(F)F)cc3)cc2n1Cc1ncccn1` [Compound 50], the inhibition at 1 µM was 30 to 70%.

For the compound `Cc1nnc(Cn2c(=O)oc3ccc(-c4ccc(OC(F)(F)F)cc4)cc32)o1` [Compound 51], the inhibition at 1 µM lay within 30 to 70%.

As to `O=c1oc2ccc(-c3ccc(OC(F)(F)F)cc3)cc2n1CC1CCOCC1` [Compound 56], the inhibition at 1 µM was greater than 70%.

The values are drawn from patent US11492345B2, “Compounds and their methods of use” (Praxis Precision Medicines, Inc., priority 2017, dated 2022).
